Assay results from ChEMBL document CHEMBL3997786, “Development of Dihydroxyphenyl Sulfonylisoindoline Derivatives as Liver-Targeting Pyruvate Dehydrogenase Kinase Inhibitors” (J Med Chem, 2017).

Molecular target: [Pyruvate dehydrogenase (acetyl-transferring)] kinase isozyme 2, mitochondrial (Homo sapiens, UniProt Q15119)
Assay: Inhibition of N-terminal His6-SUMO tagged recombinant human PDK2 using [32P]-gamma-ATP assessed as decrease in incorporation of radioactivity into E1 protein incubated for 2 mins

| Structure (SMILES) | IC50 [nM] |
| --- | --- |
| O=S(=O)(c1ccc(O)cc1O)N1Cc2ccc(NC3CCN(CC(O)CO)CC3)cc2C1 (stereo not drawn) | 154 |
| O=S(=O)(c1ccc(O)cc1O)N1Cc2ccc(NC3CCN(Cc4ccccc4)CC3)cc2C1 | 416 |
| NC(=O)C[C@H](N)C(=O)NCCNc1ccc2c(c1)CN(S(=O)(=O)c1ccc(O)cc1O)C2 | 357 |
| NC(=O)C[C@H](N)C(=O)NCCCNc1ccc2c(c1)CN(S(=O)(=O)c1ccc(O)cc1O)C2 | 67 |
| O=C(C1C[C@@H](O)C(O)[C@H](O)C1)N1CCC(Nc2ccc3c(c2)CN(S(=O)(=O)c2ccc(O)cc2O)C3)CC1 (stereo partly drawn) | 432 |
| O=C(O)c1ccccc1C(=O)N1CCC(Nc2ccc3c(c2)CN(S(=O)(=O)c2ccc(O)cc2O)C3)CC1 | 565 |
| O=S(=O)(c1ccc(O)cc1O)N1Cc2ccc(O)cc2C1 | 570 |
| O=S(=O)(c1ccc(O)cc1O)N1Cc2ccc(N3CCCCC3)cc2C1 | 4370 |
| C[C@H](O)[C@H](N)C(=O)N1CCC(Nc2ccc3c(c2)CN(S(=O)(=O)c2ccc(O)cc2O)C3)CC1 | 91 |
| O=C(O)CC(=O)N1CCC(Nc2ccc3c(c2)CN(S(=O)(=O)c2ccc(O)cc2O)C3)CC1 | 1660 |
| NC(=O)C[C@H](N)C(=O)N1CC(Nc2ccc3c(c2)CN(S(=O)(=O)c2ccc(O)cc2O)C3)C1 | 65 |
| NC(=O)C[C@H](N)C(=O)N1CC[C@H](Nc2ccc3c(c2)CN(S(=O)(=O)c2ccc(O)cc2O)C3)C1 | 156 |
| NC(=O)C[C@H](N)C(=O)N1CCCN(c2ccc3c(c2)CN(S(=O)(=O)c2ccc(O)cc2O)C3)CC1 | 1510 |
